Reference: patent publication US8722897B2, “Metal complexes of thiourea and derivatives as metal delivering anti-cancer and anti-inflammatory agents” (priority 2010, dated 2014)

What was measured:
TrxR1 [1] = target: T1, TrxR1 (Rattus norvegicus, UniProt O89049); test: biochemical; settings: for Ki: progress curve analysis
T1 sequence (O89049 1-499): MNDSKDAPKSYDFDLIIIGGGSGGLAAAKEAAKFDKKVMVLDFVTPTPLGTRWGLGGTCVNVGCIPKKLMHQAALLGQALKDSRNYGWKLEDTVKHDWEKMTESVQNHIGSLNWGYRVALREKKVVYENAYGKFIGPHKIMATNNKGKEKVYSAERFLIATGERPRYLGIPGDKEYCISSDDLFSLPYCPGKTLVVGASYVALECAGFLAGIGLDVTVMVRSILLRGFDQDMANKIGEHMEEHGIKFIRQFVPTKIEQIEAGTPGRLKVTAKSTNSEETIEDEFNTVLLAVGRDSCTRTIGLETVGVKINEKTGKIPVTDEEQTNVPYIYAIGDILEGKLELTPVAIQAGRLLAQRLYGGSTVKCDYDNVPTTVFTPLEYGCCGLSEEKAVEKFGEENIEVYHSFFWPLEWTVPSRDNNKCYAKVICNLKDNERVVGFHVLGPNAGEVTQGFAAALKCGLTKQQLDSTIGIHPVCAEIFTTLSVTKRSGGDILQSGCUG
Method: This was further studied by progress curve analysis (FIG. 8). ^24, 25 1 was added in excess (3-100 nM) to a reaction mixture containing 0.2 mM NADPH, 1 nM TrxR and 3 mM disulfide substrate 5,5′-dithiobis(2-nitrobenzoic acid) (DTNB) in phosphate buffer (pH 7.4). […] This was analyzed using Eq. 1 (Example 6), where P is the product concentration, vi and vf are the initial and final steady-state velocities, respectively, and kapp is the apparent first-order rate constant for establishment of the final steady-state inhibition. A plot of the kapp against the inhibitor concentrations followed a hyperbolic function (FIG. 8B). This is indicative of a two-step, tight-binding inhibition mechanism:
[formula] where EI is the initial collision complex, k3 is the forward isomerization rate, and k4 is the reverse isomerization rate. In this scheme, binding involves rapid formation of an initial collision complex (EI) that subsequently undergoes isomerization to the final slow dissociating enzyme-inhibitor complex (EI*). The k3, k4 and the dissociation constant of the initial collision complex EI (Ki′) can be obtained by fitting the data to Eq. 2.
1 was added in excess (3-100 nM) to a reaction mixture containing 0.2 mM NADPH, 1 nM TrxR1, 3 mM disulfide substrate 5,5′-dithiobis(2-nitrobenzoic acid) (DTNB), 100 mM phosphate buffer, pH 7.4 and 1 mM EDTA. The progress curves are non-linear, showing two-phase equilibria typical of slow-onset tight-binding inhibition. The data was fit into Eq. 1 using GraphPad Prism 3.0 software, P=vft+((vi−vf/kapp)(1−e^−kappt) (1) where P is the product concentration, vi and vf are the initial and final steady-state velocities, respectively, and kapp is the apparent first-order rate constant for establishment of the final steady-state inhibition. A plot of the kapp against the inhibitor concentrations followed a hyperbolic function (FIG. 8B). This is indicative of a two-step, tight-binding inhibition mechanism:
[formula] where EI is the initial collision complex, k3 is the forward isomerization rate, and k4 is the reverse isomerization rate. […]

NADPH-reduced TrxR1 = target: T2, NADPH-reduced TrxR1 (Rattus norvegicus, UniProt O89049); test: BIAM labeling of cysteine and selenocysteine residues of TrxR1; type: biochemical; settings: TrxR 0.1 μM, compound 4 μM, pH 8.5 and pH 6.5
T2 sequence (O89049 1-499): T1 sequence (O89049 1-499)
Text: The reduced TrxR has free —SH (Cys496) and —SeH (Sec497) groups at the C-terminal active site, making it vulnerable to be attacked by Au(I). ^20, 22, 23 These redox active sites can be probed by biotinylated iodoacetamide (BIAM), which alkylates the free —SH and —SeH groups; and the resulting adduct can be detected by western blot experiment using streptavidin-linked horseradish peroxidase (FIG. 10). ^26, 27 It has been shown that these residues can be selectively alkylated by BIAM by adjusting the pH. At pH 8.5, both —SH and —SeH are alkylated. At pH 6.5, only the —SeH is alkylated owing to the low pKa value for selenocysteine, and thus a weaker streptavidin signal was obtained in which case. […] It is highly likely that the formation of the tight enzyme-inhibitor complex (EI*) involves covalent modification of the redox active selenocysteine and cysteine residue via the Au(I) complex. ^28
NADPH-reduced TrxR1 (0.1 μM) and 1 (4 μM) were incubated in reaction buffer (100 mM phosphate buffer, pH 7.4, 1 mM EDTA) at room temperature for 1 h. […] The separated proteins were transferred to nitrocellulose membrane and the BIAM labeled proteins were detected with horseradish peroxidase conjugated streptavidin and enhanced chemiluminescence detection.

[2] = Cytotoxicity assay (MTT), HepG2; settings: human, HepG2 cells
Method: Cells were seeded in a 96-well flat-bottomed microplate at 20,000 cells/well in 150 μL of growth medium solution. The compounds were dissolved in dimethyl sulfoxide. Serial dilution of each complex was added to each well with final concentration of DMSO≦1%. The microplate was incubated at 37° C., 5% CO2, 95% air in a humidified incubator for 72 h. After incubation, 10 μL MTT reagent (5 mg/mL) was added to each well. The microplate was re-incubated at 37° C. in 5% CO2 for 4 h. Solubilization solution (10% SDS in 0.01 M HCl) (100 μL) was added to each well. The microplate was left in an incubator for 24 h. Absorbances at 550 nm were measured by a microplate reader.

TrxR1 [3] = target: T1, TrxR1; test: In vitro TrxR enzyme assay, with or without NADPH pre-reduction; type: biochemical
Method: A plot of the kapp against the inhibitor concentrations followed a hyperbolic function (FIG. 8B). This is indicative of a two-step, tight-binding inhibition mechanism: […] DTNB (3 mM) and NADPH (0.2 mM) was then added. The TrxR1 activities were determined as the increases in O.D.412 nm over 10 min.

With `COc1ccc(N2CCN(c3ccc(OC)cc3)C2=[S+][Au-][S+]=C2N(c3ccc(OC)cc3)CCN2c2ccc(OC)cc2)cc1` [complex 1, [Au(TU)2]Cl] the “recovery of enzyme activities after removal of the free inhibitors by ultrafiltration” value (TrxR1 [1]) was “could not be recovered”, the Ki (TrxR1 [1]; dissociation constant of the initial collision complex EI (Ki′)) was 1.39 nM and the Ki (TrxR1 [1]; overall inhibitory constant Ki*, Eq. 3) was 0.018 nM. For the same molecule, the “BIAM labeling of TrxR” value (NADPH-reduced TrxR1) was “inhibited”, the IC50 at 72 h [2] was 17400 ± 1000 nM and the “concentration for half maximal inhibition of TrxR” value (TrxR1 [3]; TrxR 1 nM) was “approximately equal molar concentration”. The “inhibition of NADPH reduced TrxR compared with oxidized TrxR” value (TrxR1 [3]; with or without 0.2 mM NADPH pre-reduction) was “much more efficiently inhibited”.
